Laboratory results from patent EP1718648B1, “TRICYCLIC IMIDAZOPYRIDINES AND INTERMEDIATES FOR THE SYNTHESIS THEREOF” (Nycomed GmbH, priority 2004, dated 2005).

Each molecule was assayed on pentagastrin-stimulated acid secretion of the perfused rat stomach (assay: Testing of the secretion-inhibiting action on the perfused rat stomach). Conditions: Dose 1.0 µmol/kg i.d. (intraduodenal), in vivo; anesthetized CD rat, female; pentagastrin 1 µg/kg i.v. continuous infusion.
Description: The compounds of the formula 2 according to the invention investigated in the model mentioned below have been provided with letters which correspond to the letters of these compounds in the examples.
In Table A which follows, the influence of the compounds of the formula 2 according to the invention on the pentagastrin-stimulated acid secretion of the perfused rat stomach after intraduodenal administration in vivo is shown. Table A
The abdomen of anesthetized rats (CD rat, female, 200-250 g; 1.5 g/kg i.m. urethane) was opened after tracheotomy by a median upper abdominal incision and a PVC catheter was fixed transorally in the esophagus and another via the pylorus such that the ends of the tubes just projected into the gastric lumen. The catheter leading from the pylorus led outward into the right abdominal wall through a side opening.
After thorough rinsing (about 50-100 ml), warm (37°C) physiological NaCl solution was continuously passed through the stomach (0.5 ml/min, pH 6.8-6.9; Braun-Unita I). The pH (pH meter 632, glass electrode EA 147; φ = 5 mm, Metrohm) and, by titration with a freshly prepared 0.01 N NaOH solution to pH 7 (Dosimat 665 Metrohm), the secreted HCl were determined in the effluent in each case collected at an interval of 15 minutes.
The gastric secretion was stimulated by continuous infusion of 1 µg/kg (=1.65 ml/h) of i.v. pentagastrin (left femoral vein) about 30 min after the end of the operation (i.e. after determination of 2 preliminary fractions). The substances to be tested were administered intraduodenally in a 2.5 ml/kg liquid volume 60 min after the start of the continuous pentagastrin infusion.
The body temperature of the animals was kept at a constant 37.8-38°C by infrared irradiation and heat pads (automatic, stepless control by means of a rectal temperature sensor).

Compound | Inhibition of acid secretion (%)
Cc1nc2c3c(c(C(=O)N4CCCC4)cn2c1C)CCC(c1ccccc1)N3 (stereo not drawn) [h, 1-(2,3-Dimethyl-8-phenyl-6,7,8,9-tetrahydro-1,3a,9-triaza-cyclopenta[a]naphthalen-5-yl)-1-pyrrolidin-1-yl-methanone] | > 50%
CNC(=O)c1cn2c(C)c(C)nc2c2c1CC[C@H](c1ccccc1)N2 [l, (8R)-2,3-Dimethyl-8-phenyl-6,7,8,9-tetrahydro-1,3a,9-triaza-cyclopenta[a]naphthalene-5-carboxylic Acid Methylamide] | < 50%
Cc1nc2c3c(c(C(N)=O)cn2c1C)CC[C@@H](c1ccccc1)N3 [q, (8S)-2,3-Dimethyl-8-phenyl-6,7,8,9-tetrahydro-1,3a,9-triaza-cyclopenta[a]naphthalene-5-carboxylic Acid Amide] | >50%
CNC(=O)c1cn2c(C)c(C)nc2c2c1CC[C@@H](c1ccccc1)N2 [m, (8S)-2,3-Dimethyl-8-phenyl-6,7,8,9-tetrahydro-1,3a,9-triaza-cyclopenta[a]naphthalene-5-carboxylic Acid Methylamide] | > 50%
Cc1nc2c3c(c(C(=O)NC4CC4)cn2c1C)CC[C@@H](c1ccccc1)N3 [o, (8S)-2,3-Dimethyl-8-phenyl-6,7,8,9-tetrahydro-1,3a,9-triaza-cyclopenta[a]naphthalene-5-carboxylic Acid Cyclopropylamide] | > 50%
Cc1nc2c3c(c(C(=O)N(C)C)cn2c1C)CC[C@@H](c1ccccc1)N3 [j, (8S)-2,3-Dimethyl-8-phenyl-6,7,8,9-tetrahydro-1,3a,9-triaza-cyclopenta[a]naphthalene-5-carboxylic Acid Dimethylamide] | > 50%
Cc1nc2c3c(c(C(=O)N(C)C)cn2c1C)CCC(c1ccccc1)N3 (stereo not drawn) [e, 2,3-Dimethyl-8-phenyl-6,7,8,9-tetrahydro-1,3a,9-triaza-cyclopenta[a]naphthalene-5-carboxylic Acid Dimethylamide] | > 50%
Cc1nc2c3c(c(C(=O)NC4CC4)cn2c1C)CC[C@H](c1ccccc1)N3 [n, (8R)-2,3-Dimethyl-8-phenyl-6,7,8,9-tetrahydro-1,3a,9-triaza-cyclopenta[a]naphthalene-5-carboxylic Acid Cyclopropylamide] | < 50%
Cc1nc2c3c(c(C(=O)N(C)C)cn2c1C)CC[C@H](c1ccccc1)N3 [k, (8R)-2,3-Dimethyl-8-phenyl-6,7,8,9-tetrahydro-1,3a,9-triaza-cyclopenta[a]naphthalene-5-carboxylic Acid Dimethylamide] | < 50%
CNC(=O)c1cn2c(C)c(C)nc2c2c1CCC(c1ccccc1)N2 (stereo not drawn) [c, 2,3-Dimethyl-8-phenyl-6,7,8,9-tetrahydro-1,3a,9-triaza-cyclopenta[a]naphthalene-5-carboxylic Acid Methylamide] | > 50%
Cc1nc2c3c(c(C(N)=O)cn2c1C)CCC(c1ccccc1)N3 (stereo not drawn) [f, 2,3-Dimethyl-8-phenyl-6,7,8,9-tetrahydro-1,3a,9-triaza-cyclopenta[a]naphthalene-5-carboxylic Acid Amide] | > 50%
Cc1nc2c3c(c(C(N)=O)cn2c1C)CC[C@H](c1ccccc1)N3 [p, (8R)-2,3-Dimethyl-8-phenyl-6,7,8,9-tetrahydro-1,3a,9-triaza-cyclopenta[a]naphthalene-5-carboxylic Acid Amide] | < 50%
